{
  "source": "paper PMC3559838",
  "about": "(PLoS ONE, 2013)",
  "key": {"UGT1A6": {"biological_target": "T1, UGT1A6 (Homo sapiens, UniProt P19224)", "T1 construct": "purchased BD Gentest", "T1 sequence (P19224 27-532)": "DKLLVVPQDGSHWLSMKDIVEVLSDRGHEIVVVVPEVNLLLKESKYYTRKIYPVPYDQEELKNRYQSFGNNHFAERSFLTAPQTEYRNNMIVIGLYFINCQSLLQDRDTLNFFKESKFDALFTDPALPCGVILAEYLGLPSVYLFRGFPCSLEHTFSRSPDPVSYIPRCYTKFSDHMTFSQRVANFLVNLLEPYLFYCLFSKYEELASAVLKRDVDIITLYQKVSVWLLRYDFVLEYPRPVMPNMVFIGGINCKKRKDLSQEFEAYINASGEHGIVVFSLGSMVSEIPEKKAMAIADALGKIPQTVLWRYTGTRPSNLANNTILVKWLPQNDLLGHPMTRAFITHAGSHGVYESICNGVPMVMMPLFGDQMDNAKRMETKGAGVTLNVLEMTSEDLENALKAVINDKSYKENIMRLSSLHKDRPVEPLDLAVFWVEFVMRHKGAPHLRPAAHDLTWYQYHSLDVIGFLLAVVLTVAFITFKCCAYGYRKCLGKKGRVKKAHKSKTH", "experiment": "UGT supersome screening", "assay_type": "in vitro ADME", "conditions": "UGT1A6 supersomes, 10 µM belinostat, 37°C", "protocol": "(§1) Before the addition of substrate, the incubation mixture was prewarmed and equilibrated for 5 min at 37°C. […] The incubation mixture was vortexed and centrifuged (10,060 g) at 4°C for 10 min, and the supernatants were analyzed. Insect microsomes without UGT cDNA served as negative control. […] Incubations were performed as described above. Three independent experiments were performed for kinetic analysis."}, "UGT2B17": {"biological_target": "T2, UGT2B17 (Homo sapiens, UniProt O75795)", "T2 construct": "purchased BD Gentest", "T2 sequence (O75795 24-530)": "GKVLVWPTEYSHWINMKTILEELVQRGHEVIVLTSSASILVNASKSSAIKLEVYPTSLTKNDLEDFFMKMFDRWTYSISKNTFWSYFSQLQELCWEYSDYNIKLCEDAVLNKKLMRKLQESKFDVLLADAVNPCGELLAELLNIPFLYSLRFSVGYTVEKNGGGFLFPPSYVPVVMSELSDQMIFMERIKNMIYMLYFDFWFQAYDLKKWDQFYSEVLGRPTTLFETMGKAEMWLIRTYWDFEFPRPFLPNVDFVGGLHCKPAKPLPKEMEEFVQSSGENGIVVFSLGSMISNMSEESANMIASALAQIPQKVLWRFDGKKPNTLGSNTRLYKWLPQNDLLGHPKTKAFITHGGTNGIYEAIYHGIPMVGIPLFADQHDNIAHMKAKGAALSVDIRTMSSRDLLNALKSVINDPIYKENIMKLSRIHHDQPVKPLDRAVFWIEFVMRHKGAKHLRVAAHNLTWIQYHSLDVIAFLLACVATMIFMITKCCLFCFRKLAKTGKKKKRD", "experiment": "UGT supersome screening", "assay_type": "in vitro ADME", "conditions": "UGT2B17 supersomes, 10 µM belinostat, 37°C", "protocol": "as §1"}, "UGT1A10": {"biological_target": "T3, UGT1A10 (Homo sapiens, UniProt Q9HAW8)", "T3 construct": "purchased BD Gentest", "T3 sequence (Q9HAW8 26-530)": "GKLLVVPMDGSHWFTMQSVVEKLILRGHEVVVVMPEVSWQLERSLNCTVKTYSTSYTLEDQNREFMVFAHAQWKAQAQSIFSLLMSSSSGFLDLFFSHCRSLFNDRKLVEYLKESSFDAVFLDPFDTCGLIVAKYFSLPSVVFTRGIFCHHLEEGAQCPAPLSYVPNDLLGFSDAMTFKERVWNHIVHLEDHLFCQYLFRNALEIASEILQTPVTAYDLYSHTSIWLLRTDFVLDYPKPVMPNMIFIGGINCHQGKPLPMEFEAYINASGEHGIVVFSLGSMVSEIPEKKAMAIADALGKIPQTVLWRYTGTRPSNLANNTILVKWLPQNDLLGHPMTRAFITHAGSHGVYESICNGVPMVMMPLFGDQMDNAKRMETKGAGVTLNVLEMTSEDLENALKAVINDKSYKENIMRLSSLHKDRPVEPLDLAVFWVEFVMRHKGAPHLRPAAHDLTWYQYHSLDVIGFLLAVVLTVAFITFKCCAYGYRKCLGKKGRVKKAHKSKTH", "experiment": "UGT supersome screening", "assay_type": "in vitro ADME", "conditions": "UGT1A10 supersomes, 10 µM belinostat, 37°C", "protocol": "as §1"}, "UGT1A7": {"biological_target": "T4, UGT1A7 (Homo sapiens, UniProt Q9HAW7)", "T4 construct": "purchased BD Gentest", "experiment": "UGT supersome screening", "assay_type": "in vitro ADME", "conditions": "UGT1A7 supersomes, 10 µM belinostat, 37°C", "protocol": "as §1"}, "UGT1A4": {"biological_target": "T5, UGT1A4 (Homo sapiens, UniProt P22310)", "T5 construct": "purchased BD Gentest", "T5 sequence (P22310 29-534)": "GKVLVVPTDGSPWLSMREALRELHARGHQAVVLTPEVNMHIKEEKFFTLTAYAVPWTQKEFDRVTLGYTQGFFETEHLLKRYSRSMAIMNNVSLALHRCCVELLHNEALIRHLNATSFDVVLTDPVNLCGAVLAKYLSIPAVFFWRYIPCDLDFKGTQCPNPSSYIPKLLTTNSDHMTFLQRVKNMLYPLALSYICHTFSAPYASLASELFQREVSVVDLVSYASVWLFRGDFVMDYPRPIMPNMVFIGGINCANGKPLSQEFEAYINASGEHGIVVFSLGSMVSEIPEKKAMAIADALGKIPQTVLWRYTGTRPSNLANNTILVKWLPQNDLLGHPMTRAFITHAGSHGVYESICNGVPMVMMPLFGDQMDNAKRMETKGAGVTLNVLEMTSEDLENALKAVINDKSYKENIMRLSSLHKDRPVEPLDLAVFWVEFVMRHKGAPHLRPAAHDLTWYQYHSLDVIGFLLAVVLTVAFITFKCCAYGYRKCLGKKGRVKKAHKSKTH", "experiment": "UGT supersome screening", "assay_type": "in vitro ADME", "conditions": "UGT1A4 supersomes, 10 µM belinostat, 37°C", "protocol": "as §1"}, "UGT1A9": {"biological_target": "T6, UGT1A9 (Homo sapiens, UniProt O60656)", "T6 construct": "purchased BD Gentest", "T6 sequence (O60656 26-530)": "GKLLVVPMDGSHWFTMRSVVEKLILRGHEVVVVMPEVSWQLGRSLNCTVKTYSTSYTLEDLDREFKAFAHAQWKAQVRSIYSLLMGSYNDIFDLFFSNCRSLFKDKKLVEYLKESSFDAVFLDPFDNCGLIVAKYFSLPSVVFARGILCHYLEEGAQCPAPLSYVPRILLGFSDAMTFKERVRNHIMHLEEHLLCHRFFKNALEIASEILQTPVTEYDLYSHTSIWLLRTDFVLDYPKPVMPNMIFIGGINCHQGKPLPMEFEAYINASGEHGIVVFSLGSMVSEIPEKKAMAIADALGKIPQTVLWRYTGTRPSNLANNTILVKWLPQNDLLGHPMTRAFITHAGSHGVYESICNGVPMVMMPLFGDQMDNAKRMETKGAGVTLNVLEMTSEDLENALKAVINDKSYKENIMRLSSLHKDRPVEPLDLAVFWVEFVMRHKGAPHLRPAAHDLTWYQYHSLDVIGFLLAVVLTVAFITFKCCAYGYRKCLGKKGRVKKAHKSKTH", "experiment": "UGT supersome screening", "assay_type": "in vitro ADME", "conditions": "UGT1A9 supersomes, 10 µM belinostat, 37°C", "protocol": "as §1"}, "UGT2B15": {"biological_target": "T7, UGT2B15 (Homo sapiens, UniProt P54855)", "T7 construct": "purchased BD Gentest", "T7 sequence (P54855 24-530)": "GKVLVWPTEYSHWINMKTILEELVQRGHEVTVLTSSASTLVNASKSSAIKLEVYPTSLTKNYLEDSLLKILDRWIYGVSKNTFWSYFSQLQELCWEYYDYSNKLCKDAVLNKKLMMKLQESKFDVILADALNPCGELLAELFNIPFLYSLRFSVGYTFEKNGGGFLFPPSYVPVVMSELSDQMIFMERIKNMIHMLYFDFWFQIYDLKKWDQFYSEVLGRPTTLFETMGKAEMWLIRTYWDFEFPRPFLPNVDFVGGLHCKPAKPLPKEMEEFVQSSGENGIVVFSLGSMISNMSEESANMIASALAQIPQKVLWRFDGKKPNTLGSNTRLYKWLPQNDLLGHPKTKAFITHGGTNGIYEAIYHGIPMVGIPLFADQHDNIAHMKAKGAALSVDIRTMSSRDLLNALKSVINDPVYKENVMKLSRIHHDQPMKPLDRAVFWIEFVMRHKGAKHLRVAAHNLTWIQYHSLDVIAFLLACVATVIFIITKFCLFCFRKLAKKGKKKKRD", "experiment": "UGT supersome screening", "assay_type": "in vitro ADME", "conditions": "UGT2B15 supersomes, 10 µM belinostat, 37°C", "protocol": "as §1"}, "[1]": {"set-up": "method as in Investigator's Brochure, 2004", "conditions": "rats and dogs; ref Investigator's Brochure, 2004; cited from earlier work"}, "[2]": {"set-up": "method as in Investigator's Brochure, 2004", "conditions": "following 5 or 7 days of treatment; ref Investigator's Brochure, 2004; cited from earlier work"}, "[3]": {"tested_on": "HCT116 colon cancer cells", "set-up": "method as in Plumb et al., 2003; Investigator's Brochure, 2004", "conditions": "HCT116 xenografts, 40 mg/kg/day IP once daily for 7 days; ref Plumb et al., 2003; Investigator's Brochure, 2004; cited from earlier work"}, "CYP2C8": {"tested_on": "CYP2C8", "set-up": "method as in protocol pharmaceutical information", "conditions": "ref protocol pharmaceutical information; cited from earlier work"}, "UGT1A8": {"biological_target": "T8, UGT1A8 (Homo sapiens, UniProt Q9HAW9)", "T8 construct": "purchased BD Gentest", "T8 sequence (Q9HAW9 26-530)": "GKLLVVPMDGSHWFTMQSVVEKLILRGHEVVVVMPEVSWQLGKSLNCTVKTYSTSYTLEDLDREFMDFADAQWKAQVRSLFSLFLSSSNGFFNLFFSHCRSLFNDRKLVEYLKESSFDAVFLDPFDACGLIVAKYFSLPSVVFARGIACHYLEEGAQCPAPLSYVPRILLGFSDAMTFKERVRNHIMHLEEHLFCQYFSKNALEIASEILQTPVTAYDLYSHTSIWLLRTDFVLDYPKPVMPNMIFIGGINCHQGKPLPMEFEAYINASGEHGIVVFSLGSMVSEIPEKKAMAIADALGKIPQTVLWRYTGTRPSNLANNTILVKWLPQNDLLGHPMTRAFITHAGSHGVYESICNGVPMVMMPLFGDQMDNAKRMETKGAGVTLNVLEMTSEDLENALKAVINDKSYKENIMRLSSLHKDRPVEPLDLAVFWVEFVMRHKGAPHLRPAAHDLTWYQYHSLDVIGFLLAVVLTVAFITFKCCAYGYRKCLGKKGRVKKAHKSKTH", "experiment": "UGT supersome screening", "assay_type": "in vitro ADME", "conditions": "UGT1A8 supersomes, 10 µM belinostat, 37°C", "protocol": "as §1, with “A typical incubation consisted of 50 µg of UGT, 2 mM UDPGA (UGT Reaction Solution A), 50 mM Tris-HCl, 8 mM MgCl2 and 0.025 mg/ml alamethicin (UGT Reaction Solution B) in a final incubation volume of 100 µL. Before” for “Before”"}, "UGT1A3": {"biological_target": "T9, UGT1A3 (Homo sapiens, UniProt P35503)", "T9 construct": "purchased BD Gentest", "experiment": "UGT supersome screening", "assay_type": "in vitro ADME", "conditions": "UGT1A3 supersomes, 10 µM belinostat, 37°C", "protocol": "as §1, with “A typical incubation consisted of 50 µg of UGT, 2 mM UDPGA (UGT Reaction Solution A), 50 mM Tris-HCl, 8 mM MgCl2 and 0.025 mg/ml alamethicin (UGT Reaction Solution B) in a final incubation volume of 100 µL. Before” for “Before”"}, "UGT2B4": {"biological_target": "T10, UGT2B4 (Homo sapiens, UniProt P06133)", "T10 construct": "purchased BD Gentest", "T10 sequence (P06133 24-528)": "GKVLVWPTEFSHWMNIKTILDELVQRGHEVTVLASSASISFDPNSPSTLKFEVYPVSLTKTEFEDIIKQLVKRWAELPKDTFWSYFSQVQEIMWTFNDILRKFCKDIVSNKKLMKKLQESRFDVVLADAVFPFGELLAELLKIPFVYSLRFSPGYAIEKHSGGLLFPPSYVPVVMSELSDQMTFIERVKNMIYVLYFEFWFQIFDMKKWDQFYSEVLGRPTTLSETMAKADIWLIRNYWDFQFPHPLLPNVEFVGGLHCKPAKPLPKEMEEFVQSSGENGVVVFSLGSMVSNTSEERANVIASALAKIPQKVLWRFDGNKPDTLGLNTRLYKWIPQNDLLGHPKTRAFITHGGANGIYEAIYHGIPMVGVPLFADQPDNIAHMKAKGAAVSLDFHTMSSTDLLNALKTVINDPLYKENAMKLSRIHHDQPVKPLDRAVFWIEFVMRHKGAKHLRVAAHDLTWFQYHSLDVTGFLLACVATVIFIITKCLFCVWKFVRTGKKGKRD", "experiment": "UGT supersome screening", "assay_type": "in vitro ADME", "conditions": "UGT2B4 supersomes, 10 µM belinostat, 37°C", "protocol": "as §1, with “A typical incubation consisted of 50 µg of UGT, 2 mM UDPGA (UGT Reaction Solution A), 50 mM Tris-HCl, 8 mM MgCl2 and 0.025 mg/ml alamethicin (UGT Reaction Solution B) in a final incubation volume of 100 µL. Before” for “Before”"}, "UGT2B7": {"biological_target": "T11, UGT2B7 (Homo sapiens, UniProt P16662)", "T11 construct": "purchased BD Gentest", "T11 sequence (P16662 24-529)": "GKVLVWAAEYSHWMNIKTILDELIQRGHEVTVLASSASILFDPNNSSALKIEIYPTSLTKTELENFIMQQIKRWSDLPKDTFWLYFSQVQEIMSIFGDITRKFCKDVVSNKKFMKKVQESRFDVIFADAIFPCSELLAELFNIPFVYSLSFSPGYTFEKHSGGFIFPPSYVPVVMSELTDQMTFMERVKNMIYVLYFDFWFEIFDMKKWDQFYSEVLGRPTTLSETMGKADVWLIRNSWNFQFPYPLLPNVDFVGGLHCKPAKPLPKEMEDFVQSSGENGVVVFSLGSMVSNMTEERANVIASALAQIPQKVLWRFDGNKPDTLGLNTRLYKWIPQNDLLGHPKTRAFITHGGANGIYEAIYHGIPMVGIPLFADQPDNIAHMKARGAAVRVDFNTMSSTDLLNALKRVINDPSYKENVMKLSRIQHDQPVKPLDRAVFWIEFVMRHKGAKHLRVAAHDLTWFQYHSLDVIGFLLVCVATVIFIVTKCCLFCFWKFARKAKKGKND", "experiment": "UGT supersome screening", "assay_type": "in vitro ADME", "conditions": "UGT2B7 supersomes, 10 µM belinostat, 37°C", "protocol": "as §1, with “A typical incubation consisted of 50 µg of UGT, 2 mM UDPGA (UGT Reaction Solution A), 50 mM Tris-HCl, 8 mM MgCl2 and 0.025 mg/ml alamethicin (UGT Reaction Solution B) in a final incubation volume of 100 µL. Before” for “Before”"}, "CYP3A4": {"tested_on": "CYP3A4", "set-up": "method as in protocol pharmaceutical information", "conditions": "ref protocol pharmaceutical information; cited from earlier work"}, "[4]": {"set-up": "method as in protocol pharmaceutical information", "conditions": "ref protocol pharmaceutical information; cited from earlier work"}, "[5]": {"conditions": "human, in vivo; cited from earlier work"}, "CYP2C9": {"tested_on": "CYP2C9", "set-up": "method as in protocol pharmaceutical information", "conditions": "ref protocol pharmaceutical information; cited from earlier work"}, "[6]": {"tested_on": "human A2780 ovarian cancer cells", "set-up": "method as in Plumb et al., 2003; Investigator's Brochure, 2004", "conditions": "A2780 xenografts, 10 mg/kg/day IP once daily for 7 days; ref Plumb et al., 2003; Investigator's Brochure, 2004; cited from earlier work"}, "[7]": {"set-up": "method as in Plumb et al., 2003", "conditions": "dogs, 45 minute IV infusion of 50 mg/kg; ref Plumb et al., 2003; cited from earlier work"}, "CYP1A2": {"tested_on": "CYP1A2", "set-up": "method as in protocol pharmaceutical information", "conditions": "ref protocol pharmaceutical information; cited from earlier work"}, "[8]": {"tested_on": "Histone H3 acetylation (Ac-H3 [K9/K14]) in HepG2 cells", "experiment": "Western blot of acetyl histone H3", "assay_type": "cell-based, human", "conditions": "dose increment after 5 h, time course at 10 µM", "protocol": "Protein concentrations were quantified using the Bradford assay (Invitrogen). Proteins were separated on a 12% SDS-PAGE gel and transferred to nitrocellulose membrane. Nonspecific protein binding was blocked by incubating with 5% non-fat milk (BioRad Laboratories) in 0.1% PBS-Tween (PBST) at room temperature for 1 h and incubated with specific antibodies, Histone H3 and Ac-H3 [K9/K14] (Cell Signaling), at 4°C overnight. Appropriate species-specific Horseradish peroxidises-conjugated secondary antibodies were then added and incubated at room temperature for 1 h followed by detection using an enhanced chemiluminescence kit (GE Healthcare)."}, "[9]": {"tested_on": "histone H4 acetylation in peripheral blood mononuclear cells (PBMC) and tumor tissue", "set-up": "method as in Plumb et al., 2003", "conditions": "ref Plumb et al., 2003, cited from earlier work"}},
  "data": [
    {"smiles": "O=C(/C=C/c1cccc(S(=O)(=O)Nc2ccccc2)c1)NO", "note": "[Belinostat, N-hydroxy-3-(phenylsulphamoylphenyl) acrylamide]", "values": [
      {"measurement": "metabolism by UGT isoform", "setting": "UGT1A6", "value": "no metabolism was observed"},
      {"measurement": "metabolism by UGT isoform", "setting": "UGT2B17", "value": "no metabolism was observed"},
      {"measurement": "metabolism by UGT isoform", "setting": "UGT1A10", "value": "no metabolism was observed"},
      {"measurement": "metabolism by UGT isoform", "setting": "UGT1A7", "value": "no metabolism was observed"},
      {"measurement": "metabolism by UGT isoform", "setting": "UGT1A4", "value": "no metabolism was observed"},
      {"measurement": "metabolism by UGT isoform", "setting": "UGT1A9", "value": "no metabolism was observed"},
      {"measurement": "metabolism by UGT isoform", "setting": "UGT2B15", "value": "no metabolism was observed"},
      {"measurement": "elimination routes of PXD101 and its metabolites", "setting": "[1]", "value": "urinary and fecal routes"},
      {"measurement": "drug accumulation", "setting": "[2]", "value": "no clear indication of drug accumulation"},
      {"measurement": "tumor growth", "setting": "[3]", "value": "Growth inhibition was also observed"},
      {"measurement": "CYP2C8 inhibition", "setting": "CYP2C8", "value": "weak to moderate inhibitor"},
      {"measurement": "metabolism by UGT isoform", "setting": "UGT1A8", "value": "less than 3%"},
      {"measurement": "metabolism by UGT isoform", "setting": "UGT1A3", "value": "less than 3%"},
      {"measurement": "metabolism by UGT isoform", "setting": "UGT2B4", "value": "less than 3%"},
      {"measurement": "metabolism by UGT isoform", "setting": "UGT2B7", "value": "less than 3%"},
      {"measurement": "contribution of CYP3A4 to metabolism", "setting": "CYP3A4", "value": "contributes to PXD101 metabolism"},
      {"measurement": "light stability", "setting": "[4]", "value": "no obvious light instability"},
      {"measurement": "maximum tolerable dose", "setting": "[5]", "value": 1200, "unit": "mg/m^2"},
      {"measurement": "CYP2C9 inhibition", "setting": "CYP2C9", "value": "weak to moderate inhibitor"},
      {"measurement": "tumor growth", "setting": "[6]", "value": "Delay of tumor growth was observed"},
      {"measurement": "plasma t½", "setting": "[7]", "value": "approximately 40 minutes"},
      {"measurement": "CYP1A2 induction", "setting": "CYP1A2", "value": "moderate inducer"},
      {"measurement": "Histone H3 acetylation", "setting": "[8]", "value": "time and concentration dependent increase"},
      {"measurement": "histone H4 acetylation in PBMC", "setting": "[9]; 1 and 2 hours after a single IP injection of 40 mg/kg", "value": "Hyperacetylated histone H4 was detected"},
      {"measurement": "time at which acetylation returned to baseline levels", "setting": "[9]; PBMC, single IP injection of 40 mg/kg", "value": "≤ 3", "unit": "h"},
      {"measurement": "dose with marked acetylation in both PBMCs and tumor tissue", "setting": "[9]; mice", "value": "≥ 10", "unit": "mg/kg"}
    ]}
  ]
}
